Results as given in paper PMC4942689, “Deciphering the function of the CNGB1b subunit in olfactory CNG channels” (Scientific Reports, 2016).
Values joined by “and” are separate entries in the source; they are usually repeats but may differ in a detail not shown here. Equal entries are not always repeated. Where two headings read alike, the source gives them in different places.

How the values were obtained:
CNGA2TM:A4 = biological target: T1, CNGA2TM:A4 (Rattus norvegicus, UniProt Q00195+Q64359, T539M); assay: Ligand binding, confocal patch-clamp fluorometry; parameters: key: +: ligand binding to the respective modulatory subunits was either observed or not; −: ligand binding to the respective modulatory subunits was either observed or not; details: 10 μM; construct CNGA2TM:A4
T1 construct: expressed in transfected cells; host or cells: Xenopus laevis oocytes (cRNA injection), excised patches
T1 sequence (Q00195 whole entry T539M): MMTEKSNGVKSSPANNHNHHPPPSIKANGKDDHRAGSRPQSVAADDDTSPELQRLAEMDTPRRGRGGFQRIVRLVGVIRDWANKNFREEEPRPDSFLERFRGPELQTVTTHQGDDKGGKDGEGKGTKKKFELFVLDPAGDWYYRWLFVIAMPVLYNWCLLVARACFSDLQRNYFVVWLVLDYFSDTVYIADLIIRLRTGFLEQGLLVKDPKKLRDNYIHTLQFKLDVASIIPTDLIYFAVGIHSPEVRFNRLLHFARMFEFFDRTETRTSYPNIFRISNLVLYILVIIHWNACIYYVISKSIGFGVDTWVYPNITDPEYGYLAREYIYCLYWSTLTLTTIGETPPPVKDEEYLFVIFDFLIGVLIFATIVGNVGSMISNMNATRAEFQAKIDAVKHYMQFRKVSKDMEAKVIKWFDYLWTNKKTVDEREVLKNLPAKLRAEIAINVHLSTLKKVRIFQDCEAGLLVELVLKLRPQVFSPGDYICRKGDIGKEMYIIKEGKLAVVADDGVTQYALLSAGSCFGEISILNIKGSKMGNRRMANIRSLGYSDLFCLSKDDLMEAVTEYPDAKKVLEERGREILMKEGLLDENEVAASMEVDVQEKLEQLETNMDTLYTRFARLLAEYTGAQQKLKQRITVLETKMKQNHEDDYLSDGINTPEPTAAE
T1 sequence (Q64359 whole entry): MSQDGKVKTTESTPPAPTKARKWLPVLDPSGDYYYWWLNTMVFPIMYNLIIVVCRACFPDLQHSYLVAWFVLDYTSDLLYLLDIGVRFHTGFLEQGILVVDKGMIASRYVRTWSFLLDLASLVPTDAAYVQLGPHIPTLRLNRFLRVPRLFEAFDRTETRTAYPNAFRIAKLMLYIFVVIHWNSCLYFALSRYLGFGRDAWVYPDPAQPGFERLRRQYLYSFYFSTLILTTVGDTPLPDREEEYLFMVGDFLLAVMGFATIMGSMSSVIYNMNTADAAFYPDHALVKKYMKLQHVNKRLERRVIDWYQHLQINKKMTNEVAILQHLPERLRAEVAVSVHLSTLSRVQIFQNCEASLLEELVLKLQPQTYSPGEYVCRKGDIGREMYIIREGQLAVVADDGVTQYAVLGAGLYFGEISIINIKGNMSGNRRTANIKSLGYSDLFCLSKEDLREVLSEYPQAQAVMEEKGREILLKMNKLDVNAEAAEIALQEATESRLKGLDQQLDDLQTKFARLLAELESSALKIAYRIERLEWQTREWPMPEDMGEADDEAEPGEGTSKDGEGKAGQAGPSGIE
Excerpt: The channels to be studied were expressed in Xenopus oocytes. We first tested the subunit composition in our channels when coexpressing different combinations of subunits by single-channel recordings. For CNGA2:A4, CNGA2:B1b and CNGA2:A4:B1b channels we exclusively obtained the specific and easily distinguishable single-channel activity reported earlier when injecting respective amounts of RNA[7][13]. We therefore assumed that the channels formed had always the expected subunit composition. The specific binding of cyclic nucleotides and the activation of the CNG channels were measured in parallel by means of confocal patch-clamp fluorometry in excised patches, using fluorescent cyclic nucleotide derivatives. The method has been described previously.
The ligand binding was measured in macropatches by patch-clamp fluorometry[41][42] combined with confocal microscopy. […] Recordings were performed with an LSM 510 or 710 confocal microscope (Zeiss, Jena, Germany) and were triggered by the ISO3 software (MFK, Niedernhausen, Germany). To distinguish between the fluorescence of the unbound ligands from that of the bound ligands, a second dye, DY647 (Dyomics, Jena, Germany), was added to the bath solution. The 543-nm and 633-nm lines of a He-Ne laser were used to excite fcAMP/fcGMP and DY647, respectively. The method of confocal patch-clamp fluorometry has been described in detail previously.

CNGA2RE:A4 = system: CNGA2RE:A4; parameters: method as in Nache et al., 2012; key: +: ligand binding to the respective modulatory subunits was either observed or not; −: ligand binding to the respective modulatory subunits was either observed or not; details: 10 μM; construct CNGA2RE:A4; ref Nache et al., 2012; cited from earlier work
CNGA2RE:A4:B1b channels = biological target: T2, CNGA2RE:A4:B1b channels (Rattus norvegicus, UniProt A0A8I5ZN27+Q00195+Q64359, R538E); assay: Concentration-activation relationship, patch-clamp; assay type: biochemical; details: for EC50: Equation 2, +100 mV
T2 construct: expressed in transfected cells; host or cells: Xenopus laevis oocytes (cRNA injection), excised inside-out patches
T2 sequence (Q00195 whole entry R538E): as the sequence (Q00195 whole entry T539M) above, with R538E, M539T counted along it
T2 sequence (Q64359 whole entry): as the sequence (Q64359 whole entry) above
T2 sequence (A0A8I5ZN27 1-858 isoform A0A8I5ZN27-2, stated change not applied): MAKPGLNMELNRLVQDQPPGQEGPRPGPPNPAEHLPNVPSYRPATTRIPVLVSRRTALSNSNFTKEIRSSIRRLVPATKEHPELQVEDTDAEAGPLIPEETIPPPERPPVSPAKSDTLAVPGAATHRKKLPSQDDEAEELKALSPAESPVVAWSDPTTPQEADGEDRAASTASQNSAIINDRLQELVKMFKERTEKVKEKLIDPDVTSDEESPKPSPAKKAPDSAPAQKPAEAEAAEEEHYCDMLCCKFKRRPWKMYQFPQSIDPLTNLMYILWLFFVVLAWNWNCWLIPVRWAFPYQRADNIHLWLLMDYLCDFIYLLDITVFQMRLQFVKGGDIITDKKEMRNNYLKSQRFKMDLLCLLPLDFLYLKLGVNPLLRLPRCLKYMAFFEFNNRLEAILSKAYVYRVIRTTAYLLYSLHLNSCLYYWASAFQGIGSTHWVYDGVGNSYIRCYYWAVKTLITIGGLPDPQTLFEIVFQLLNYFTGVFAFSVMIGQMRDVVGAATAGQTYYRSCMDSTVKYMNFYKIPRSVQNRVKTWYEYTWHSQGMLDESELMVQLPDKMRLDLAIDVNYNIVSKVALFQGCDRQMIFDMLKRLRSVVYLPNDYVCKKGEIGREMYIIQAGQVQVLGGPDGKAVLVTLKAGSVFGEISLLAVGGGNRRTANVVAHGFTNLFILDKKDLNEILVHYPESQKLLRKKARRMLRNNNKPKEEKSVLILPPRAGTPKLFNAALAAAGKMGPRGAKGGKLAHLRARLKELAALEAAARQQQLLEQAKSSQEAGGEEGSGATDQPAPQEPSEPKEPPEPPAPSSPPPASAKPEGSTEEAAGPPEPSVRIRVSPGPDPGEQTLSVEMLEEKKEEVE
Protocol: In order to consider the combined apparent affinity of CNGA4 and CNGB1b, we measured the concentration-response relationship of CNGA2RE:A4:B1b channels (Fig. 3c; Table 1).
(§1) Patch-clamp experiments were performed using an Axopatch 200B amplifier (Molecular Devices LLC, CA, U.S.A.) in the inside-out configuration. The patch pipettes for recording of macroscopic currents were pulled from borosilicate glass tubing (outer diameter 2.0 mm, inner diameter 1.0 mm; Hilgenberg GmbH, Germany). The initial resistance was 0.7–1.3 MΩ. The patches were formed as pushed inside-out patches. […] Cyclic nucleotide concentration jumps were performed using a double-barreled glass pipette mounted on a piezo-driven device. Intracellular (bath) and extracellular (pipette) solutions contained (mM) 150 KCl, 1 EGTA, 5 Hepes, pH = 7.4 with KOH. […] Currents in the absence of the cyclic nucleotide were subtracted. All patches included in this study were first tested for channel expression in the presence of a saturating ligand concentration. Only patches with large current, i.e. a large number of channels, were included in our statistics. The currents were measured at +10 mV or, if mentioned, at +100 mV.
(§2) Fits of equations to data points were performed with the 8.1G® software (OriginLab Corporation, Northampton, U.S.A.). Concentration-activation relationships were obtained by relating the actual current amplitude, I, to the maximum current amplitude elicited by a saturating concentration of ligand, Imax, and plotting this ratio as function of the ligand concentration, x. The concentration-activation data were fitted using the Hill equation
For the concentration-activation relationships showing two components, the data points were fitted to the sum of two Hill equations according to
EC50,h, EC50,l, Hh, and Hl are the ligand concentration of half maximum current and the Hill coefficient for the high and low affinity component, respectively. a and (1-a) denote the contribution of the high and low affinity component, respectively.

[1] = system: homotetrameric CNGA2RE (R538E) channels; parameters: method as in Nache et al., 2012; details: Equation 1, ref Nache et al., 2012; cited from earlier work
[2] = biological target: T3, homotetrameric CNGA2 channels (Rattus norvegicus, UniProt Q00195); assay: Concentration-activation relationship, inside-out patch-clamp, Xenopus oocytes; assay type: biochemical
T3 construct: expressed in transfected cells; host or cells: Xenopus laevis oocytes (cRNA injection), excised inside-out patches
T3 sequence (Q00195 whole entry): as the sequence (Q00195 whole entry T539M) above, with M539T counted along it
Protocol: as §1, with “The initial resistance was 0.7–1.3 MΩ.” left out, “mV. Fits of equations to data points were performed with the 8.1G® software (OriginLab Corporation, Northampton, U.S.A.). Concentration-activation relationships were obtained by relating the actual current amplitude, I, to the maximum current amplitude elicited by a saturating concentration of ligand, Imax, and plotting this ratio as function of the ligand concentration, x. […]” for “mV.”

CNGA2:A4:B1b channels = biological target: T4, CNGA2:A4:B1b channels (Rattus norvegicus, UniProt A0A8I5ZN27+Q00195+Q64359); assay: Concentration-activation relationship, inside-out patch-clamp; assay type: biochemical; details: CNGA2:A4:B1b
T4 construct: expressed in transfected cells; host or cells: Xenopus laevis oocytes (cRNA injection 2:1:1), excised inside-out patches
T4 sequence (Q00195 whole entry): as the sequence (Q00195 whole entry T539M) above, with M539T counted along it
T4 sequence (Q64359 whole entry): as the sequence (Q64359 whole entry) above
T4 sequence (A0A8I5ZN27 1-858 isoform A0A8I5ZN27-2): as the sequence (A0A8I5ZN27 1-858 isoform A0A8I5ZN27-2, stated change not applied) above
Protocol: as §1, §2
where EC50 is the ligand concentration of half maximum effect and H the Hill coefficient.
In fHcAMP the dye DY547 is coupled to
(b) Concentration-activation relationships of the CNGA2:A4:B1b channels activated by either
The currents were recorded […]

In the case of 8-[DY-547]-AET-cGMP [fcGMP], the “Ligand binding to CNGA4” value (CNGA2TM:A4) is listed as “+” and the “Ligand binding to CNGA4” value (CNGA2RE:A4) is listed as “+”.

For Nc1nc2c(ncn2[C@@H]2O[C@@H]3COP(=O)(O)O[C@H]3[C@H]2O)c(=O)[nH]1 [cGMP], the Hh (CNGA2RE:A4:B1b channels; Hill coefficient of high affinity component, +100 mV) was 1.05 and 1.1, the H1 (CNGA2RE:A4:B1b channels; Hill coefficient of low affinity component, +100 mV) was 1.2 and the “contribution of the high-affinity component (a)” value (CNGA2RE:A4:B1b channels; combined contribution of CNGA4 and CNGB1b) was 89%. For the same molecule, the “a (contribution of the high affinity component)” value (CNGA2RE:A4:B1b channels; fraction, Equation 2) was 0.89, the EC50 (CNGA2RE:A4:B1b channels; high affinity component (CNGA4 and CNGB1b combined), read-out: EC50,h) was 5.7 µM and the EC50 (CNGA2RE:A4:B1b channels; low affinity component, read-out: EC50,l) was 733 µM. The EC50 [1] was 607 µM, the H ([2]; Hill coefficient, Equation 1) was 1.9 and the EC50 ([2]; fit with Equation 1) was 1.74 µM. For the same molecule, the EC50 (CNGA2:A4:B1b channels; Equation 1) was 0.76 µM and the H (CNGA2:A4:B1b channels; Hill coefficient) was 2.0.
